These results are taken from publication PMC7756412 (2020).

Assay [1] has as its system Myc3l-dup5 (DNA, G4) GATCAGTTTTACTGATCGGGTGGTGGGTGGGGAAGG
Briefly: CD melting, 265 nm. The settings on record: 120 mM Na+; 100 mM NaCl, 20 mM sodium phosphate pH 7; 1 equiv PIQ; quadruplex domain; derived from two Tm (66.3, 73.8).

Assay [2] concerns Myc-dup3 (DNA, G4) TGAGGGTGGGTAGGGTGGGCTAGTCATTTTGACTAG
Briefly: CD melting, 265 nm. The settings on record: 120 mM Na+; 100 mM NaCl, 20 mM sodium phosphate pH 7; 5 µM DNA, 1 equiv PIQ; quadruplex domain; 44.7 to 68.2 °C.

For assay [3], the system named is Myc-dup5 (DNA, G4) GATCAGTTTTACTGATCGGGTGGGTAGGGTGGGTA
Briefly: CD melting, 265 nm. The settings on record: 120 mM Na+; 100 mM NaCl, 20 mM sodium phosphate pH 7; 5 µM DNA, 1 equiv PIQ; quadruplex domain; 53.2 to 69.7 °C.

Assay [4] has as its system Myc3l-dup5 (DNA, G4) GATCAGTTTTACTGATCGGGTGGTGGGTGGGGAAGG
Briefly: UV melting, 260 nm. The settings on record: 120 mM Na+; 100 mM NaCl, 20 mM sodium phosphate pH 7; 1 equiv PIQ; duplex domain; derived from two Tm (69.5, 76.1).

The subject of assay [5] is Myc-dup3 (DNA, G4) TGAGGGTGGGTAGGGTGGGCTAGTCATTTTGACTAG
Briefly: UV melting, 260 nm. The settings on record: 120 mM Na+; 100 mM NaCl, 20 mM sodium phosphate pH 7; 1 equiv PIQ; duplex domain; derived from two Tm (63.6, 70.8).

In assay [6] the test system is Myc3l-dup5 (DNA, G4) GATCAGTTTTACTGATCGGGTGGTGGGTGGGGAAGG
As to the kind of experiment: ITC, two-site fit. The settings on record: 120 mM K+; 100 mM KCl, 20 mM potassium phosphate pH 7.0, 5% DMSO, 40 °C; high-affinity site. For orientation: Isothermal titration calorimetry measures the heat released or taken up as one component is titrated into another.

The subject of assay [7] is Myc-dup3 (DNA, G4) TGAGGGTGGGTAGGGTGGGCTAGTCATTTTGACTAG
As to the kind of experiment: ITC, two-site fit. The settings on record: 120 mM K+; 100 mM KCl, 20 mM potassium phosphate pH 7.0, 5% DMSO, 40 °C; high-affinity site.

Assay [8] has as its system Myc-dup5 (DNA, G4) GATCAGTTTTACTGATCGGGTGGGTAGGGTGGGTA
Briefly: UV melting, 260 nm. The settings on record: 120 mM Na+; 100 mM NaCl, 20 mM sodium phosphate pH 7; 1 equiv PIQ; duplex domain; derived from two Tm (67.8, 73.5).

Assay [9] shares this test system. Briefly: NMR titration, chemical shift perturbation. The settings on record: K+ (10 mM potassium phosphate); pH 7.0, 20 °C; 5' quadruplex-duplex junction; ITC isotherm not reliably fitted (Ka n.d.).

Usually ΔTm stands for the shift of the melting midpoint relative to a reference.

As to `CCN(CC)CCCNC(=O)c1ccc(-c2c3cccc(C)c3[n+](C)c3c2[nH]c2c(C)cccc23)cc1`, the thermal shift (ΔTm) came out at 7.5 °C in assay [1]; 23 °C in assay [2]; 17 °C in assay [3]; 6.6 °C in [4]; 7.2 °C in assay [5]; 5.7 °C in assay [8]. The results for the Ka result in assay [6] and in assay [7] were “(1.6±0.2)×10^7 M^-1” and “(1.6±0.4)×10^7 M^-1”, respectively. For the same molecule, in assay [9], the binding result is reported as “yes”.
